Assay results from patent publication US20210236467A1, “DANTROLENE FORMULATIONS AND METHODS OF THEIR USE” (EAGLE PHARMACEUTICALS, INC., priority 2018, published 2021).
In brackets after ≈: the same amount, converted by molar mass.

Legend:
[1] = Effective pH determination (10-fold dilution of non-aqueous sample in water); assay type: physicochemical; settings: for effective pH of 10 mg/mL samples in PEG400: Example 3, target 10 mg/mL in PEG400, 10-fold dilution in water, ratios acid:sodium by volume; for pH of the supernatant (effective pH): 10-fold dilution in water
Experimental: The pH of the supernatant was measured by making a 10-fold dilution of the supernatant in water.
The effective pH of the supernatant was measured by making a 10-fold dilution of the supernatant in water.
The effective pH of the dantrolene acid supernatant and dantrolene sodium sample was measured by making 10-fold dilutions in water, per the methods described elsewhere herein.
The effective pH of each sample was measured by making 10F dilutions in water. The pH values were recorded as follows—
Effective pH measurements were conducted at ambient room temperature, using a Thermo Scientific Orion Star A111 pH benchtop meter. The instrument was calibrated within one day of the effective pH measurement using phosphate buffers at pH 4, 7, and 10 (Hydrion Tri-Chek Buffer Capsule set).
Samples were prepared by diluting the non-aqueous/anhydrous sample 10 fold with water. The diluted sample was vortexed for about 10 to 15 seconds. Effective pH was measured using the pre-calibrated pH benchtop meter, directly after vortexing.
After each effective pH measurement, the pH bulb was rinsed with an appropriate rinse solution to remove the entire test sample from the bulb.

[2] = Solubility / concentration determination by UPLC of supernatant; assay type: physicochemical; settings: organic solvent or mixture, thermodynamic from solid; saturated supernatant, room temperature, propylene glycol
Experimental: 11.2 mgs of dantrolene acid was added to 224 uL of PEG400. […] The tube was centrifuged for 5 min at 15,000 rpm at room temperature to separate the sample into supernatant (dantrolene acid in solution) and pellet (insoluble material). The supernatant was transferred into a clean tube and diluted 100-, 200- and 400-fold in 25% acetonitrile for analysis by UPLC as described below.
16.3 mgs of dantrolene acid was added to 326 uL of propylene glycol. […] The tube was centrifuged for 5 min at 15,000 rpm at room temperature to separate the sample into supernatant (dantrolene acid in solution) and pellet (insoluble material). The supernatant was transferred into a clean tube and diluted 50-, 100- and 200-fold in 25% acetonitrile for analysis by UPLC as described below. The solubility of dantrolene acid in propylene glycol was calculated as ˜0.8 mg/mL.
13.0 mgs of dantrolene acid was dissolved in 1.3 mL of PEG400, targeting 10 mg/mL dantrolene acid. […]
Analysis was performed using an Agilent UPLC System equipped with a diode array detector and an Agilent C18 Zorbax column. Samples were analyzed using a gradient method with mobile phase A containing 0.1% trifluoroacetic acid in water and mobile phase B containing 0.1% trifluoroacetic acid in acetonitrile. […] A 10 uL sample was injected and the analytes were detected by UV at 385 nm. […] Peak areas were determined by manual integration. […]

[3] = Precipitation on dilution/addition of water; assay type: physicochemical
[4] = cited from earlier work
[5] = Dissolution and solution stability by visual inspection; assay type: physicochemical; settings: for dissolution on visual inspection: target 10 mg/mL in PEG400, after vortexing
Experimental: 13.0 mgs of dantrolene acid was dissolved in 1.3 mL of PEG400, targeting 10 mg/mL dantrolene acid. 12.7 mgs of dantrolene sodium was dissolved in 1.27 mL of PEG400, targeting 10 mg/mL of dantrolene sodium. […] Both tubes were centrifuged for 5 min at 3,900 rpm at room temperature to separate the sample into supernatant (dantrolene acid or dantrolene sodium in solution) and pellet (insoluble material). […] The supernatant of the dantrolene acid sample was transferred into a clean tube. The dantrolene acid supernatant and the dantrolene sodium solution were diluted 100- and 200-fold in 25% acetonitrile for analysis on the UPLC as described below.
Dantrolene sodium (6.4 mg) was weighed into a glass vial and propylene glycol (0.128 mL) was added, using a positive displacement pipette to achieve a target concentration of 50 mg/mL of dantrolene sodium. The contents of the vials were mixed with a positive displacement pipette. Visual inspection confirmed that the solutions were clear. The sample was a stable solution for at about 2 days at room temperature, after which time, precipitate formed. The precipitate was 99.9% dantrolene, as determined using HPLC.
Dantrolene sodium (6.2 mg) was weighed into a glass vial and PEG400 (0.124 mL) was added, using a positive displacement pipette to achieve a target concentration of 50 mg/mL of dantrolene sodium. The contents of the vials were mixed with a positive displacement pipette. Visual inspection confirmed that solutions were clear. The sample was a stable solution for at about 2 days at room temperature, after which time, precipitate formed. The precipitate was 99.9% dantrolene, as determined using HPLC.

[6] = pH of aqueous slurry of dantrolene sodium; assay type: physicochemical; settings: 43.5 mg in 43.5 mL of water
Experimental: 43.5 mgs of dantrolene sodium was slurried in 43.5 mL of water in a conical tube. The pH of the initial of the slurry was 9.89.

Row | SMILES | effective pH of 10 mg/mL samples in PEG400 [1] | pH of the supernatant (effective pH) ([1]; PEG400 supernatant) | pH of the supernatant (effective pH) ([1]; propylene glycol supernatant) | solubility [2] | behaviour of the 10-fold dilution in water ([3]; PEG400 supernatant) | behaviour of the 10-fold dilution in water ([3]; propylene glycol supernatant) | solubility in water [4] | dissolution on visual inspection [5] | pH of the initial slurry [6] | effect of addition of 50 μL of water ([3]; 50 mg/mL in PEG400 (0.124 mL)) | effect of addition of 50 μL of water ([3]; 50 mg/mL in propylene glycol (0.128 mL)) | time as stable solution before precipitate formed ([5]; 50 mg/mL in PEG400, room temperature) | time as stable solution before precipitate formed ([5]; 50 mg/mL in propylene glycol, room temperature) | visual inspection of solution ([5]; target 50 mg/mL in PEG400) | visual inspection of solution ([5]; target 50 mg/mL in propylene glycol)
1 | O=C1CN(/N=C/c2ccc(-c3ccc([N+](=O)[O-])cc3)o2)C(O)=N1 [dantrolene acid, 1-{[5-(4-nitrophenyl)-2-furyl]methylideneamino}imidazolidine-2,4-dione] | 4.95 | 4.88 | 5.73 | ~800 µg/mL (≈ 2550 µM) | precipitated out quickly | precipitated out slowly | very poorly soluble in water | cloudy after vortexing |  |  |  |  |  |  | 
2 | O=C1CN(/N=C/c2ccc(-c3ccc([N+](=O)[O-])cc3)o2)C(O)=N1 [dantrolene sodium] | 9.67 |  |  |  |  |  |  | completely dissolved | 9.89 | precipitation | precipitation | about 2 days | about 2 days | clear | clear
